Laboratory results published in US20220135663A1, “Method of treatment of Chronic Low Back Pain” (Pfizer Inc., priority 2019, published 2022).
“Also recorded” adds a separate entry of the source.

Columns and labels:
[1] = test system: adult patients with chronic low back pain; assay: Study 1059, Phase 3: efficacy (LBPI, RMDQ) in chronic low back pain; type: in vivo, human
Experimental: The Low Back Pain Intensity (LBPI) measure is assessed with an 11-point numeric rating scale ranging from 0 (no pain) to 10 (worst possible pain). The LBPI score can be the daily average LBPI score.
The Roland Morris Disability Questionnaire (RMDQ) is an index of how well subjects with low back pain are able to function with regard to daily activities (Roland M, Fairbank. The Roland-Morris Questionnaire and the Oswestry Disability Questionnaire. Spine. 2000; 25 (4)3115-3124). It is a low back pain-specific assessment of physical function with scores ranging from 0 to 24 (lower scores indicate better function).
(§1) Patients were also required to have documented history of previous inadequate treatment response to at least 3 different categories of agents commonly used and generally considered effective for the treatment of chronic low back pain. Patients were required to discontinue all medications for the treatment of chronic low back pain during the primary efficacy assessment period (up to Week 16).
Approximately 1800 patients were planned to be randomized initially in a 2:2:2:3 ratio to 1 of 4 following treatment groups:
1. Placebo administered SC at an 8-week interval plus placebo matching tramadol PR up to Week 16. At the Week 16 visit, patients in this group were switched in a blinded fashion in a 1:1 ratio to either tanezumab 5 mg or tanezumab 10 mg administered SC at an 8 week interval plus placebo matching tramadol PR to Week 56;
2. Tanezumab 5 mg SC administered at an 8-week interval plus placebo matching tramadol PR to Week 56;
3. Tanezumab 10 mg SC administered at an 8-week interval plus placebo matching tramadol PR to Week 56;
4. Oral tramadol PR 100-300 mg daily plus placebo administered SC at an 8-week interval to Week 56.
To achieve the initial randomization and intended re-randomization at Week 16 for placebo patients, a randomization ratio 1:1:2:2:3 for placebo→tanezumab 5 mg (at Week 16), placebo→tanezumab 10 mg (at Week 16), tanezumab 5 mg, tanezumab 10 mg, and tramadol PR was used at the beginning of the trial.
Table 2 summarizes the requirements for analgesic medication usage prior to Screening and the requirements for LBPI and Patient's Global Assessment (PGA) of CLBP. The current study enrolled patients who were more refractory to standard of care treatments for CLBP and had higher LBPI scores at Baseline.

[2] = test system: adult patients with chronic low back pain; assay: Study 1059: adverse events and adjudicated joint safety; type: in vivo, human; conditions: for incidence of discontinuations from treatment due to an adverse event / incidence of serious adverse events / overall incidence of adverse events: 56-week treatment period
Source text: For subjects who are identified with a possible or probable joint event (i.e., rapidly progressive osteoarthritis, subchondral insufficiency fractures, spontaneous osteonecrosis of the knee (SPONK), primary osteonecrosis or pathological fracture) and subjects undergoing total joint replacement for any reason, all images and other source documentation may be provided to the blinded Adjudication Committee for review and adjudication of the event. The Adjudication Committee's assessment of the event may represent the final classification of the event.
as §1

[3] = test system: subjects with chronic low back pain (CLBP); assay: Study 1063, Phase 3 in Japan: efficacy (LBPI, RMDQ) in chronic low back pain; type: in vivo, human
Experimental: Patients received a total of seven SC injections, separated by 8 weeks (tanezumab or
Treatment groups were as follows: 1. […] Placebo for tanezumab SC and celecoxib BID.
The Intent-to-Treat (ITT) analysis set included all patients who were randomized and received at least one dose of SC study medication (either tanezumab or placebo). This analysis set was primary for all efficacy endpoints, which were analyzed according to randomization assignment, and was labeled as the ‘ITT population’.

[4] = test system: subjects with chronic low back pain (CLBP); conditions: in vivo
Experimental: This second study (termed “Study 1063) was a randomized, double-blind, active-controlled, multicenter, parallel-group Phase 3 study in Japan to evaluate the safety and efficacy of tanezumab when administered by SC injection for up to 56 weeks in subjects with chronic low back pain (CLBP). […] Patients were also required to be experiencing some benefit from their current stable dose regimen of oral therapy of NSAID (celecoxib 200 mg/day [100 mg BID], loxoprofen 120 to 180 mg/day or meloxicam 5 to 15 mg/day) treatment, but still required additional pain relief at screening. […] Patients with a diagnosis of osteoarthritis of the knee or hip as defined by the American College of Rheumatology combined clinical and radiographic criteria or who had Kellgren Lawrence Grade ≥2 radiographic evidence of hip osteoarthritis or Kellgren Lawrence Grade ≤3 radiographic evidence of knee osteoarthritis were excluded.
Treatment groups were as follows: 1. Tanezumab 5 mg SC and placebo for celecoxib BID; 2. Tanezumab 10 mg SC and placebo for celecoxib BID; 3. Placebo for tanezumab SC and celecoxib BID.
This study was designed with a total (post-randomization) duration of 80 weeks and consisted of three periods: (1) a Screening period (up to a maximum of 37 days), (2) a Double-blind Treatment period (56 weeks), and (3) a Safety Follow-up (24 weeks) Period (FIG. 8). The Screening Period included a Washout Period (lasting 2-32 days) if required, and an Initial Pain Assessment Period (IPAP) (5 days prior to Randomization/Baseline; minimum 4 days).
The Safety analysis set included all patients who received at least one dose of SC study treatment. This analysis set was primary for all safety endpoints, which were analyzed according to treatment received, and was labeled as the ‘Safety population’. In this study, the ITT and Safety analysis sets were identical.

[5] = test system: OA; conditions: tanezumab 2.5-5 mg combined, N = 2000; cited from earlier work
[6] = biological target: T1, NGF (Homo sapiens, UniProt P01138); conditions: cited from earlier work
T1 sequence (P01138 122-241): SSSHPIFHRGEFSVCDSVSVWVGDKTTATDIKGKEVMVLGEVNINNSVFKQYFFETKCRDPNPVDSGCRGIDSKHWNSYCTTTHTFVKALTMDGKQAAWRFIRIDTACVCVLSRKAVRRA

[7] = biological target: T1, NGF; conditions: cell culture models; cited from earlier work
[8] = 5 mg SC every 8 weeks, listed as Tan
[9] = 10 mg SC every 8 weeks, listed as Tan
[10] = tanezumab 5-10 mg combined, N = 1008

tanezumab: humanized IgG2 monoclonal antibody directed against human nerve growth factor (NGF); heavy chain SEQ ID NO: 9 or 11, light chain SEQ ID NO: 10
LBPI at week 56, LS mean difference versus tramadol ([1]; 5 mg SC every 8 weeks): −0.11
LBPI change from Baseline to Week 2, Difference vs. plc ([1]; 5 mg SC every 8 weeks): −0.37
LBPI change from Baseline to Week 2, LS Mean ([1]; 5 mg SC every 8 weeks): −1.54
LBPI change from Baseline to Week 16, Difference vs. plc ([1]; 5 mg SC every 8 weeks): No statistically significant improvement
LBPI change from Baseline to Week 16, LS Mean ([1]; 5 mg SC every 8 weeks): −2.98
Proportion of patients with ≥50% improvement in LBPI at Week 16 ([1]; 5 mg SC every 8 weeks): (43.3) %
RMDQ at week 56, LS mean difference versus tramadol ([1]; 5 mg SC every 8 weeks): −0.44
RMDQ change from Baseline to Week 16, Difference vs. plc ([1]; 5 mg SC every 8 weeks): larger improvement in RMDQ versus placebo treatment
RMDQ change from Baseline to Week 16, LS Mean ([1]; 5 mg SC every 8 weeks): −6.27
percentage of patients achieving ≥30% improvement in LBPI at week 16 ([1]; 5 mg SC every 8 weeks): 64.8%
≥30% improvement in LBPI at week 16, odds ratio versus placebo ([1]; 5 mg SC every 8 weeks): 1.45
≥30% improvement in LBPI at week 16, odds ratio versus tramadol ([1]; 5 mg SC every 8 weeks): 1.34
≥50% improvement in LBPI at Week 16, OR vs. plc ([1]; 5 mg SC every 8 weeks): 1.28
LBPI change from Baseline to Week 16, Difference vs. plc [1, 8]: −0.30
RMDQ change from Baseline to Week 16, Difference vs. plc [1, 8]: −1.32
LBPI at week 56, LS mean difference versus tramadol ([1]; 10 mg SC every 8 weeks): −0.21
LBPI change from Baseline to Week 2, Difference vs. plc ([1]; 10 mg SC every 8 weeks): onset of effect at Week 2
LBPI change from Baseline to Week 2, LS Mean ([1]; 10 mg SC every 8 weeks): −1.59
LBPI change from Baseline to Week 16, Difference vs. plc ([1]; 10 mg SC every 8 weeks): statistically significant improvement
LBPI change from Baseline to Week 16, LS Mean ([1]; 10 mg SC every 8 weeks): −3.08
Proportion of patients with ≥50% improvement in LBPI at Week 16 ([1]; 10 mg SC every 8 weeks): (46.3) %
RMDQ at week 56, LS mean difference versus tramadol ([1]; 10 mg SC every 8 weeks): −0.83
RMDQ change from Baseline to Week 16, Difference vs. plc ([1]; 10 mg SC every 8 weeks): superior improvement in physical function
RMDQ change from Baseline to Week 16, LS Mean ([1]; 10 mg SC every 8 weeks): −6.69
percentage of patients achieving ≥30% improvement in LBPI at week 16 ([1]; 10 mg SC every 8 weeks): 65.5%
≥30% improvement in LBPI at week 16, odds ratio versus placebo ([1]; 10 mg SC every 8 weeks): 1.50
≥30% improvement in LBPI at week 16, odds ratio versus tramadol ([1]; 10 mg SC every 8 weeks): 1.38
≥50% improvement in LBPI at Week 16, OR vs. plc ([1]; 10 mg SC every 8 weeks): superior responder rate
LBPI change from Baseline to Week 2, Difference vs. plc [1, 9]: −0.42
LBPI change from Baseline to Week 16, Difference vs. plc [1, 9]: −0.40
RMDQ change from Baseline to Week 16, Difference vs. plc [1, 9]: −1.74
≥50% improvement in LBPI at Week 16, OR vs. plc [1, 9]: 1.45
incidence of adverse events of potential sympathetic dysfunction ([2]; 5 mg): 5.9%
incidence of carpal tunnel syndrome ([2]; 5 mg): 1.0%
incidence of hypoaesthesia ([2]; 5 mg): 3.0%
incidence of composite joint safety endpoint ([2]; 5 mg SC every 8 weeks): 1.0%
observation-time adjusted rate of composite joint safety endpoint ([2]; 5 mg SC every 8 weeks): 10.0 events/1000 patient-years
patients adjudicated to normal progression of OA, number ([2]; 5 mg SC every 8 weeks): 1 patient
patients with joint safety event adjudicated to RPOA Type 1 ([2]; 5 mg SC every 8 weeks): 1.0%
patients with joint safety event adjudicated to RPOA Type 1, number ([2]; 5 mg SC every 8 weeks): 5 patients
incidence of discontinuations from treatment due to an adverse event ([2]; 5 mg): 6.7%
incidence of serious adverse events ([2]; 5 mg): 2.2%
overall incidence of adverse events ([2]; 5 mg): 58.3%
incidence of adverse events of potential sympathetic dysfunction ([2]; 10 mg): 6.4%
incidence of carpal tunnel syndrome ([2]; 10 mg): 1.6%
incidence of hypoaesthesia ([2]; 10 mg): 3.8%
incidence of composite joint safety endpoint ([2]; 10 mg SC every 8 weeks): 2.6%
observation-time adjusted rate of composite joint safety endpoint ([2]; 10 mg SC every 8 weeks): 25.7 events/1000 patient-years
patients adjudicated to normal progression of OA, number ([2]; 10 mg SC every 8 weeks): 1 patient
patients with joint safety event adjudicated to RPOA Type 1 ([2]; 10 mg SC every 8 weeks): 1.4%
patients with joint safety event adjudicated to RPOA Type 1, number ([2]; 10 mg SC every 8 weeks): 7 patients
patients with joint safety events adjudicated to RPOA Type 2 ([2]; 10 mg SC every 8 weeks): 0.4%
patients with joint safety events adjudicated to RPOA Type 2, number ([2]; 10 mg SC every 8 weeks): Two
patients with subchondral insufficiency fracture ([2]; 10 mg SC every 8 weeks): 0.8%
patients with subchondral insufficiency fracture, number ([2]; 10 mg SC every 8 weeks): Four and four
patients with total joint replacement during study observation period, number ([2]; 10 mg SC every 8 weeks): 7 patients
incidence of discontinuations from treatment due to an adverse event ([2]; 10 mg): 7.4%
incidence of serious adverse events ([2]; 10 mg): 4.6%
overall incidence of adverse events ([2]; 10 mg): 63.7%
Primary Osteonecrosis, n (%) [2, 10]: 0 n (%)
RPOA Type 1 [2, 10]: (1.2%)
RPOA Type 2 [2, 10]: (0.2%)
Subchondral Insufficiency Fracture [2, 10]: (0.4%)
patients with joint safety event requiring adjudication ([2]; tanezumab-treated patients (5 and 10 mg combined), 80-week observation period): 2.6%
Proportion of Patients with ≥50% Improvement in LBPI at Week 16 (Mixed BOCF/LOCF) ([3]; 5 mg SC every 8 weeks): (51.1%)
Proportion with ≥50% Improvement in LBPI at Week 16, Difference vs. celecoxib ([3]; 5 mg SC every 8 weeks): 18.5
Change from Baseline to Week 16 in LBPI (Multiple Imputation), LS Mean ([3]; 5 mg SC every 8 weeks, ITT): −2.91
Change from Baseline to Week 16 in RMDQ (Multiple Imputation), LS Mean ([3]; 5 mg SC every 8 weeks, ITT): −3.85
Change from Baseline to Week 16 in RMDQ, LS Mean Difference vs. celecoxib ([3]; 5 mg SC every 8 weeks, ITT): −0.01
treatment differences for change from baseline to Week 56 for LBPI and RMDQ ([3]; 5 mg group relative to both the tanezumab 10 mg and the celecoxib groups): numerically larger
Proportion of Patients with ≥50% Improvement in LBPI at Week 16 (Mixed BOCF/LOCF) ([3]; 10 mg SC every 8 weeks): (35.5%)
Proportion with ≥50% Improvement in LBPI at Week 16, Difference vs. celecoxib ([3]; 10 mg SC every 8 weeks): 2.9
Change from Baseline to Week 16 in LBPI (Multiple Imputation), LS Mean ([3]; 10 mg SC every 8 weeks, ITT): −2.51
Change from Baseline to Week 16 in RMDQ (Multiple Imputation), LS Mean ([3]; 10 mg SC every 8 weeks, ITT): −4.38
severity of abnormal peripheral sensation adverse events [4]: mild in severity
severity of potential sympathetic dysfunction events [4]: mild in severity
Primary Osteonecrosis [5]: (0.1%)
RPOA [5]: (4.8%)
RPOA Type 1 [5]: (3.9%)
RPOA Type 2 [5]: (0.9%)
Subchondral Insufficiency Fracture [5]: (0.7%)
binding to NGF [6]: high specificity and affinity; also recorded: high affinity and specificity
blocking of the activity of NGF [7]: blocks the activity of NGF effectively
